Results reported in patent US20250011289A1, “1H-BENZO[B]AZEPIN-2(3H)-ONE COMPOUNDS, COMPOSITIONS AND METHODS OF TREATING CANCER” (Chengdu Anticancer Bioscience, Ltd., priority 2021, published 2025).
Like-named read-outs stand apart in the source and are kept apart here.

Legend:
[1] = test system: RPE-Neo or RPE-MYC or RPE-MYC expressing an EGFP-Histone 2B fusion protein; experiment: Phenotypic screening assay (arrest in mitosis or change in DNA content, IN-Cell Analyzer); assay type: cell-based; conditions: compounds at 20 nM to 20 μM, analysed 24, 48 or 72 hours after initiation of treatment
Procedure: (§1) Screening was conducted as described before (Li et al. 2019). Briefly, RPE-Neo or RPE-MYC or RPE-MYC expressing an EGFP-Histone 2B fusion protein were passaged as batches of 96-well plates, 18-24 hours before exposure to the chemical compounds of the present disclosure at concentrations from 20 nM to 20 μM. At 24, 48 or 72 hours after initiation of treatment, cells were analyzed for either an arrest in mitosis or a change in DNA content by GE 1N-Cell Analyzer 2000. MTT assays of cellular proliferation were performed as previously described (Li et al. 2019).
(§2) As set forth in table 2 below, an values of greater than or equal to 1 nM and less than or equal to 1.0 μM is marked “A”; a value greater than 1.00 μM and less than or equal to 10.0 μM is marked “B”; a value greater than 10.0 μM and less than or equal to 30.0 μM is marked “C”; and a value greater than 30.0 μM and less than 1000 μM is marked “D.”

RPE-Neo or RPE-MYC cells = experiment: MTT assay of cellular proliferation; assay type: cell-based; conditions: compounds at 20 nM to 20 μM; read-out: Min. Effective conc. for Proliferative arrest (>50%)
Procedure: Human cancer cell lines were obtained from ATCC and cultured in DMEM (Gibco, Cleveland. TN, USA) supplemented with 5% fetal bovine serum (Gibco), penicillin (100 U/mL)-streptomycin (100 μg/mL) (Gibco, Cat. No. 15140-122), 2 mM L-glutamine (Gibco, 200 mM solution, Cat. No. 25030081), and 1 mM sodium pyruvate (Gibco, 100 mM solution, Cat. No. 11360070) at 37° C. in a humidified incubator that was maintained at 5% CO2.
as §1, §2

[2] = read-out: Min. Effective conc. for Along with Cell Death
[3] = read-out: Min. Effective conc. for Mitotic Arrest (>5%)
[4] = read-out: Min. Effective conc. for Polyploidy (≥5%)

Measured: minimal effective concentration

COc1ccc2c(c1)N(Cc1ccc(C)c(F)c1)C(=O)CC(c1nnc(C3CC3)o1)=C2Br [Compound 20-4, 5-bromo-4-(5-cyclopropyl-1,3,4-oxadiazol-2-yl)-1-(3-fluoro-4-methylbenzyl)-8-methoxy-1,3-dihydro-2H-benzo[b]azepin-2-one]
0.001 to 1 µM: [1]; [2] | [1]; [3] | [1]; [4] | RPE-Neo or RPE-MYC cells

Cc1ccc(CN2C(=O)CC(c3nnc(C4CC4)o3)=C(Cl)c3ccccc32)cc1F [Compound 20-5, 5-chloro-4-(5-cyclopropyl-1,3,4-oxadiazol-2-yl)-1-(3-fluoro-4-methylbenzyl)-1,3-dihydro-2H-benzo[b]azepin-2-one]
0.001 to 1 µM: [1]; [2] | [1]; [3] | [1]; [4] | RPE-Neo or RPE-MYC cells

Cc1ccc(CN2C(=O)CC(c3nnc(C4CC4)o3)=C(Br)c3ccc(F)cc32)cc1F [Compound 20-7, 5-bromo-4-(5-cyclopropyl-1,3,4-oxadiazol-2-yl)-8-fluoro-1-(3-fluoro-4-methylbenzyl)-1,3-dihydro-2H-benzo[b]azepin-2-one]
0.001 to 1 µM: [1]; [2] | [1]; [3] | [1]; [4] | RPE-Neo or RPE-MYC cells

Cc1nnc(C2=C(Br)c3ccc(F)cc3N(Cc3ccc(C)c(F)c3)C(=O)C2)o1 [Compound 20-8, 5-bromo-8-fluoro-1-(3-fluoro-4-methylbenzyl)-4-(5-methyl-1,3,4-oxadiazol-2-yl)-1,3-dihydro-2H-benzo[b]azepin-2-one]
0.001 to 1 µM: [1]; [2] | [1]; [3] | [1]; [4] | RPE-Neo or RPE-MYC cells

Cc1ccc(CN2C(=O)CC(c3nnc(C4CC4)o3)=C(Br)c3ccc(Cl)cc32)cc1F [Compound 20-9, 5-bromo-8-chloro-4-(5-cyclopropyl-1,3,4-oxadiazol-2-yl)-1-(3-fluoro-4-methylbenzyl)-1,3-dihydro-2H-benzo[b]azepin-2-one]
0.001 to 1 µM: [1]; [2] | [1]; [3] | [1]; [4] | RPE-Neo or RPE-MYC cells

Cc1nnc(C2=C(Br)c3ccc(Cl)cc3N(Cc3ccc(C)c(F)c3)C(=O)C2)o1 [Compound 20-10, 5-bromo-8-chloro-1-(3-fluoro-4-methylbenzyl)-4-(5-methyl-1,3,4-oxadiazol-2-yl)-1,3-dihydro-2H-benzo[b]azepin-2-one]
0.001 to 1 µM: [1]; [2] | [1]; [3] | [1]; [4] | RPE-Neo or RPE-MYC cells

Cc1ccc(CN2C(=O)CC(c3nnc(C4CC4)o3)=C(Br)c3ccc(C#N)cc32)cc1F [Compound 20-11, 5-bromo-4-(5-cyclopropyl-1,3,4-oxadiazol-2-yl)-1-(3-fluoro-4-methylbenzyl)-2-oxo-2,3-dihydro-1H-benzo[b]azepine-8-carbonitrile]
0.001 to 1 µM: [1]; [2] | [1]; [3] | [1]; [4] | RPE-Neo or RPE-MYC cells

Cc1ccc2c(c1)N(Cc1ccc(C)c(F)c1)C(=O)CC(c1nnc(C3CC3)o1)=C2Br [Compound 20-12, 5-bromo-4-(5-cyclopropyl-1,3,4-oxadiazol-2-yl)-1-(3-fluoro-4-methylbenzyl)-8-methyl-1,3-dihydro-2H-benzo[b]azepin-2-one]
0.001 to 1 µM: [1]; [2] | [1]; [3] | [1]; [4] | RPE-Neo or RPE-MYC cells
